Data taken from patent US4419355A, “Condensed as-triazine derivatives and method of using the same” (Egyt Gyogyszervegyeszeti Gyar, priority 1980, dated 1983).

Tests used:
[1] = Acute toxicity on mice (oral); details: mouse, in vivo, p.o., CFLP mice, 20 ml/kg, 4 days observation
Protocol: The acute toxicity of the new compounds according to the invention was determined on white mice of both sexes weighing 18-24 g belonging to the strain CFLP. Administration was effected with an oral dosage of 20 ml/kg. After treatment the animals were kept under observation for 4 days.

[2] = Acute toxicity on rats (oral); details: rat, in vivo, p.o., Wistar rats, 0.5% suspension with carboxymethylcellulose
Protocol: The acute toxicity was investigated also on Wistar rats. A 0.5% suspension prepared from the test compound and carboxymethylcellulose was administered orally to the animals.

tetrabenazine ptosis [3] = experiment: Tetrabenazine ptosis antagonism on rats; assay type: in vivo; details: for ED50: Rattus norvegicus, read-out: Tetrabenazine ptosis ant. ED50; for Therapeutic index: tetrabenazine ptosis ant.
Protocol: (§1) The experiments were carried out on the analogy of the tests described at point (a).

[4] = test system: Reserpine-ethanol narcose; experiment: Reserpine-ethanol narcose antagonism on rats; assay type: in vivo; details: for ED50: Rattus norvegicus, read-out: Reserpine-ethanol narcose ant. ED50; for Ther. index: reserpine-ethanol narcose ant.
Protocol: as §1

tetrabenazine ptosis [5] = experiment: Tetrabenazine antagonism on mice; details: for ED50: Mus musculus, po; for Therapeutic index LD50/ED50: p.o., mice, tetrabenazine antagonism
Protocol: Groups of animals consisting of 10-20 mice each were examined. A 0.9% sodium chloride solution was administered to the mice of the control group in a dosage of 20 ml/kg. After 30 minutes 50 mg/kg of tetrabenazine were administered. The animals with closed interpalpebral zone were counted 30, 60, 90 and 120 minutes after the administration of the tetrabenazine. The data were summarized and the inhibition in comparison with the control was determined.

yohimbine toxicity = experiment: Potentiation of yohimbine toxicity on mice; assay type: in vivo; details: for ED50: Mus musculus, po; for Therapeutic index LD50/ED50: p.o., mice, yohimbine potentiation
Protocol: The experiments were carried out by the method of Quinton et al. The test compound was administered orally in a volume of 20 ml/kg half an hour before the administration of the standard yohimbine dose.

SMILES | LD50 at 96 h [1] | LD50 [2] | ED50 (tetrabenazine ptosis [3]) | Therapeutic index (tetrabenazine ptosis [3]) | ED50 [4] | Ther. index [4] | ED50 (tetrabenazine ptosis [5]) | Therapeutic index LD50/ED50 (tetrabenazine ptosis [5]) | ED50 (yohimbine toxicity) | Therapeutic index LD50/ED50 (yohimbine toxicity)
CN(C)CCC=C1c2ccccc2CCc2ccccc21 [Amitriptylin, reference compound] | 225 mg/kg | 530 mg/kg | 11.5 mg/kg | 46.1 | 40 mg/kg | 13.25 | 12 mg/kg | 18.75 |  | 
c1ccc(-c2ncn[n+]3ccccc23)cc1 [Compound A, 1-phenyl-pyrido[2,1-f]-as-triazinium bromide] | 1400 mg/kg |  |  |  |  |  | 30 mg/kg | 46.7 | 66 mg/kg | 21.2
Clc1ccc(-c2ncn[n+]3ccccc23)cc1 [Compound B, 1-(4-chlorophenyl)-pyrido[2,1-f]-as-triazinium bromide] | 900 mg/kg |  |  |  |  |  | 14 mg/kg | 64.2 | 50 mg/kg | 18.0
Clc1ccc(-c2ncn[n+]3ccc4ccccc4c23)cc1 [Compound C, 1-(4-chlorophenyl)-as-triazino[6,1-a]-isoquinolinium bromide] | 600 mg/kg | 1000 mg/kg | 5.6 mg/kg | 178.6 | 40 mg/kg | 25.0 | 3.2 mg/kg | 187.5 | 3.5 mg/kg | 171.4
